Like-named read-outs stand apart in the source and are kept apart here.
Assays:
[1] = target: PRC2 containing wt EZH2 (Homo sapiens (Human), UniProt Q15910); assay: EZH2 residence time assay (100-fold dilution of pre-formed enzyme-inhibitor complex); type: biochemical
Protocol: EZH2 residence time assay: Compound residence times were assessed by monitoring the recovery of enzyme activity following a 100-fold dilution of pre-formed enzyme-inhibitor complex (dilution reaction), and comparing it to the activity of an undiluted control with the same final concentrations of all reagents (control reaction). Enzyme activity was measured by incorporation of ^3H-SAM into a biotinylated H3 peptide. […] For the control reaction, 0.202 nM PRC2 was pre-incubated with 1 μM activating peptide, 1.01 μM SAM, 1.01 μM ^3H-SAM, and compound at 6.06 times its Ki for 2 h in 138.6 μL of buffer, then the reaction was initiated by the addition of 1.4 μL 500 μM substrate peptide in water. Reactions were quenched at various time points spanning up to 10 hours, by transferring 8 μL aliquots from the reaction vessel to a plate containing 8 μL per well of STOP solution (50 mM Tris pH 8.5, 200 mM EDTA, 2 mM SAH). After the last time point, 12 μL of the quenched solutions were transferred to a streptavidin coated FlashPlate (PerkinElmer) containing 40 μL per well of STOP solution, incubated 1-8 h, washed, and read in a TopCount plate reader (PerkinElmer). A custom script was used to fit control reaction progress data to a straight line and dilution reaction progress data:
Where y is the product formed, t is the reaction time, vi is the initial velocity, vs is the steady state velocity, and kobs is the rate constant for the transition from the initial velocity phase of the curve to the steady state velocity phase of the curve. In fitting the dilution reaction progress data, vs was constrained to the slope of the line fitted to the control reaction progress data. The fitted value of kobs was then transformed into residence time:
Where τ is residence time, Ki is the inhibition constant, [EI] is the calculated equilibrium concentration of enzyme-inhibitor complex, [E] is the calculated equilibrium concentration of free enzyme, and [I] is the calculated equilibrium concentration of free inhibitor.

[2] = tested on: H3K27me3 mark in HeLa cells (EZH2); assay: H3K27me3 Alpha Hela Assay (AlphaLISA); type: cell-based; details: HeLa cell assay, Table 3 classes, read-out: EC50 Cellular Activity
Summary of the method: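 HeLa cells (1,000/well) treated with ten 3-fold compound doses for 72 h at 37 °C; lysates extracted and H3K27me3 detected by AlphaLISA with anti-K27me3 acceptor beads, biotinylated anti-H3 (3 nM) and streptavidin donor beads. EC50 from DMSO-normalized dose-response curves; duplicate plate assessed viability.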

Chain of PRC2 containing wt EZH2 (Q15910 whole entry): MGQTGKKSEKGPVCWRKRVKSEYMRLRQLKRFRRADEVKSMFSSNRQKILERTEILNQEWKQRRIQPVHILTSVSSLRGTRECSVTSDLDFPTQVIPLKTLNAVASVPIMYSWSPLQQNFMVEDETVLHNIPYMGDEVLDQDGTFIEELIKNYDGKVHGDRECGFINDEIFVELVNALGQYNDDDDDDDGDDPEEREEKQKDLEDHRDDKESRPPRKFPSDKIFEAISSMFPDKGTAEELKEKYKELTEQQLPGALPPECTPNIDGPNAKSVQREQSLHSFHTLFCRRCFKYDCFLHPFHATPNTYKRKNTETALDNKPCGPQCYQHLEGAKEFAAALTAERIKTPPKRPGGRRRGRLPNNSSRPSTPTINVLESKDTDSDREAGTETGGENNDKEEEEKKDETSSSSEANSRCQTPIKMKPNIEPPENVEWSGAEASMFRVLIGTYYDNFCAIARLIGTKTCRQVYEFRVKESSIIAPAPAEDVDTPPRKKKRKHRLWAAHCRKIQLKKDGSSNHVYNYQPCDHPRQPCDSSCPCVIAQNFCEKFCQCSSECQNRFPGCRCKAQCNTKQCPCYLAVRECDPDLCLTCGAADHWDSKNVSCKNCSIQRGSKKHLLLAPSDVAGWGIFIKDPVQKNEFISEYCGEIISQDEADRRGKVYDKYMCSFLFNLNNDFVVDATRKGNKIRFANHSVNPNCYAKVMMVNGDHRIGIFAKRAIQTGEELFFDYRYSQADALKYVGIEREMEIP
Chain of PRC2 containing wt EZH2 (O75530 whole entry partner): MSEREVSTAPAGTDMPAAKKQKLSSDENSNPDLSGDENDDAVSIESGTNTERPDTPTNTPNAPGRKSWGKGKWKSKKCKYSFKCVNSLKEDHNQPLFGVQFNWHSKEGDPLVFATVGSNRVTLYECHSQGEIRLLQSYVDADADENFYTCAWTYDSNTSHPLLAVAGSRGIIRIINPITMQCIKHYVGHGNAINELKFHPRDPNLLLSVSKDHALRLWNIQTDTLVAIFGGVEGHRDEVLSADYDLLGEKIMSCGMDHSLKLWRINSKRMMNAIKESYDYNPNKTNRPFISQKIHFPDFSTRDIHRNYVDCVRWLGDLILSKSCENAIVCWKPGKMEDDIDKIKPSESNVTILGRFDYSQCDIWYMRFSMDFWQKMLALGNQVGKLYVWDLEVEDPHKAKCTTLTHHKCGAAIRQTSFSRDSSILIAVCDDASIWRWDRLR
Chain of PRC2 containing wt EZH2 (Q15022 whole entry partner): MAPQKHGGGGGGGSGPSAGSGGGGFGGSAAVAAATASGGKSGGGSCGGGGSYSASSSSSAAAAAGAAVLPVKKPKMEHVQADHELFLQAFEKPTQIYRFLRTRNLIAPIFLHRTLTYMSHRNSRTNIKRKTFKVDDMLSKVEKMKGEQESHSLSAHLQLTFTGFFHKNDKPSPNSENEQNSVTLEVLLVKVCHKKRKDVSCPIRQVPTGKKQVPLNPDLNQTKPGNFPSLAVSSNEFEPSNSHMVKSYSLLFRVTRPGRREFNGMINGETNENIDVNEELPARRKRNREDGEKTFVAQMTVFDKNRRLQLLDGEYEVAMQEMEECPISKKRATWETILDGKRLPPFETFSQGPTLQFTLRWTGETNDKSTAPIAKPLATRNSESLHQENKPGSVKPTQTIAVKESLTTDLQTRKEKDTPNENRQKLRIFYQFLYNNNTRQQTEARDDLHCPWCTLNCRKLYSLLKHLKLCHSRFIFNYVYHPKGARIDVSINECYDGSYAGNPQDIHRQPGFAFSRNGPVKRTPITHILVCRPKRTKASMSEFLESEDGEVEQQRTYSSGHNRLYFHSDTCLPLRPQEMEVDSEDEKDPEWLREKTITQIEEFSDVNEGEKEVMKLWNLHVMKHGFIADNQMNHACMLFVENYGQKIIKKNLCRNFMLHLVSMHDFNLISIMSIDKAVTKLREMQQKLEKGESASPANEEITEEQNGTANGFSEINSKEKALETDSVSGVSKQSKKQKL
Chain of PRC2 containing wt EZH2 (Q09028 whole entry partner): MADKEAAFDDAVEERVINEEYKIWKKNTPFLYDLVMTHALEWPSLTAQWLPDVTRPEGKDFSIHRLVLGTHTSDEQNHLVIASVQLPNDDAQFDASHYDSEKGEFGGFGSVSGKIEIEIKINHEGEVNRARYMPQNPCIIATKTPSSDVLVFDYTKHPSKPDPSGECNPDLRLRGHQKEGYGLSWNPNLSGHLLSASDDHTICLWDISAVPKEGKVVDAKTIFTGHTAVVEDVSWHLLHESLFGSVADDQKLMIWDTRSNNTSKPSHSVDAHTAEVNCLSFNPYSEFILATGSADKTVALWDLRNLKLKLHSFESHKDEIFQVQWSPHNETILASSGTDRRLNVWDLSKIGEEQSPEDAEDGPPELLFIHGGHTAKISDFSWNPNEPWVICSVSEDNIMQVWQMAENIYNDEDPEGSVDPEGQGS
Chain of PRC2 containing wt EZH2 (Q6ZN18 whole entry partner): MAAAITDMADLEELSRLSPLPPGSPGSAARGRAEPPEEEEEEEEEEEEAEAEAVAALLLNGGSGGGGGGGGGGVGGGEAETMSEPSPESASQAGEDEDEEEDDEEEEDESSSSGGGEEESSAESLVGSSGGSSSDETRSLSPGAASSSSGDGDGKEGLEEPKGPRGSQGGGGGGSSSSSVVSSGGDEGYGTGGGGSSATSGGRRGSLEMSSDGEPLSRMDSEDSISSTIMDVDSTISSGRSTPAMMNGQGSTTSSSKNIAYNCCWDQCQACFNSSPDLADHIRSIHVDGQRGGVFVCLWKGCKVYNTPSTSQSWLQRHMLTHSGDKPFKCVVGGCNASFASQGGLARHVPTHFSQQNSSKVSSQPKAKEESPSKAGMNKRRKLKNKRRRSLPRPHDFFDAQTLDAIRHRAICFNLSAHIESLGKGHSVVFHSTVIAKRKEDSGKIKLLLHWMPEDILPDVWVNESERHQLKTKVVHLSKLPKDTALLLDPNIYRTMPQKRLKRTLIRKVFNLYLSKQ

SMILES: CSc1cc(C)[nH]c(=O)c1CNC(=O)c1c(C)n([C@H](C)C2CCC(N3CC(OC4CC4)C3)CC2)c2ncccc12 (stereo partly drawn)
- residence time ([1]; read-out: Residence Time): 300 to 2100 min
- EC50 ([2]; Homo sapiens, HeLa): < 0.005 µM

SMILES: CSc1cc(C)[nH]c(=O)c1CNC(=O)c1c(C)n([C@H](C)C2OCC(NC(C)(C)C)CO2)c2ccccc12 (single isomer, unassigned) [drawing 224]
- residence time [1]: A (value of greater than 35 hours)
- EC50 [2]: < 0.005 µM

SMILES: CSc1cc(C)[nH]c(=O)c1CNC(=O)c1c(C)n([C@H](C)C2CCC(NC3(C)COC3)CC2)c2ccccc12 (single isomer, unassigned) [drawing 205]
- residence time [1]: A (value of greater than 35 hours)
- EC50 ([2]; Homo sapiens, HeLa): < 0.005 µM

SMILES: CSc1cc(C)[nH]c(=O)c1CNC(=O)c1c(C)n([C@H](C)C2OCC(NC3(C)COC3)CO2)c2ccccc12 (single isomer, unassigned) [drawing 228]
- residence time [1]: D (a t value of less or equal than 0.5 hours)
- EC50 [2]: > 0.125 µM

SMILES: CSc1cc(C)[nH]c(=O)c1CNC(=O)c1c(C)n([C@H](C)C2CCC(O)CC2)c2ccccc12 (single isomer, unassigned) [drawing 251]
- residence time [1]: A (value of greater than 35 hours)
- EC50 [2]: < 0.005 µM

SMILES: CSc1cc(C)[nH]c(=O)c1CNC(=O)c1c(C)n([C@H](C)C2CCC(N3CC(F)C3)CC2)c2ccccc12 (single isomer, unassigned) [drawing 255]
- residence time [1]: C (a t value of greater than 0.5 hours but less or equal than 5 hours)
- EC50 [2]: 0.005 to 0.025 µM

SMILES: Cc1cc(Cl)c(CNC(=O)c2c(C)n([C@H](C)C3CCC(NC4COC4)CC3)c3ccccc23)c(=O)[nH]1 (single isomer, unassigned) [drawing 212]
- residence time [1]: C (a t value of greater than 0.5 hours but less or equal than 5 hours)
- EC50 [2]: 0.025 to 0.125 µM

SMILES: Cc1cc(SC2CCC2)c(CNC(=O)c2c(C)n([C@H](C)C3CCN(CC(F)(F)F)CC3)c3ccccc23)c(=O)[nH]1 [drawing 267]
- residence time [1]: 30 to 300 min
- EC50 ([2]; Homo sapiens, HeLa): 0.025 to 0.125 µM

SMILES: Cc1cc(Cl)c(CNC(=O)c2c(C)n([C@H](C)C3CCOCC3)c3ccccc23)c(=O)[nH]1
- residence time [1]: < 30 min
- EC50 ([2]; Homo sapiens, HeLa): 0.025 to 0.125 µM

SMILES: Cc1cc(Cl)c(CNC(=O)c2c(C)n([C@H](C)C3CCC(NC4(C)COC4)CC3)c3ccccc23)c(=O)[nH]1 (single isomer, unassigned) [drawing 202]
- residence time [1]: B (a t value of greater than 5 hours but less or equal than 35 hours)
- EC50 [2]: 0.005 to 0.025 µM

SMILES: CSc1cc(C)[nH]c(=O)c1CNC(=O)c1c(C)n([C@H](C)C2CCC(O)CC2)c2ccccc12 (single isomer, unassigned) [drawing 250]
- residence time [1]: B (a t value of greater than 5 hours but less or equal than 35 hours)
- EC50 ([2]; Homo sapiens, HeLa): < 0.005 µM

SMILES: Cc1cc(C)c(CNC(=O)c2c(C)n([C@H](C)C3CCC(NC4(C)COC4)CC3)c3ccccc23)c(=O)[nH]1 (single isomer, unassigned) [drawing 204]
- residence time [1]: B (a t value of greater than 5 hours but less or equal than 35 hours)
- EC50 [2]: < 0.005 µM

SMILES: COC1CN(C2CCC([C@@H](C)n3c(C)c(C(=O)NCc4c(C)cc(C)[nH]c4=O)c4ccccc43)CC2)C1 (single isomer, unassigned)
- residence time [1]: 30 to 300 min
- EC50 ([2]; Homo sapiens, HeLa): 0.005 to 0.025 µM

SMILES: Cc1cc(C)c(CNC(=O)c2c(C)n([C@H](C)C3CCN(CC(F)(F)F)CC3)c3ccccc23)c(=O)[nH]1
- residence time [1]: < 30 min
- EC50 ([2]; Homo sapiens, HeLa): 0.025 to 0.125 µM

SMILES: CSc1cc(C)[nH]c(=O)c1CNC(=O)c1c(C)n([C@H](C)C23CC(N(C)CC(F)(F)F)(C2)C3)c2ccccc12 [drawing 237]
- residence time [1]: 300 to 2100 min
- EC50 ([2]; Homo sapiens, HeLa): 0.005 to 0.025 µM

SMILES: COC1CN(C2CCC([C@@H](C)n3c(C)c(C(=O)NCc4c(SC)cc(C)[nH]c4=O)c4cccnc43)CC2)C1 (single isomer, unassigned) [drawing 259]
- residence time [1]: 300 to 2100 min
- EC50 [2]: 0.005 to 0.025 µM

SMILES: COC1CN(C2CCC([C@@H](C)n3c(C)c(C(=O)NCc4c(SC5CC5)cc(C)[nH]c4=O)c4ccccc43)CC2)C1 (stereo partly drawn) [drawing 264]
- residence time [1]: 300 to 2100 min
- EC50 ([2]; Homo sapiens, HeLa): 0.005 to 0.025 µM

SMILES: Cc1cc(SC(F)F)c(CNC(=O)c2c(C)n([C@H](C)C3CCN(CC(F)(F)F)CC3)c3ccccc23)c(=O)[nH]1 [drawing 266]
- residence time [1]: < 30 min
- EC50 ([2]; Homo sapiens, HeLa): 0.025 to 0.125 µM

SMILES: Cc1cc(Cl)c(CNC(=O)c2c(C)n([C@H](C)C3CCC(NC4(C)COC4)CC3)c3ccccc23)c(=O)[nH]1 (single isomer, unassigned) [drawing 201]
- residence time [1]: D (a t value of less or equal than 0.5 hours)
- EC50 [2]: 0.025 to 0.125 µM

SMILES: CCSc1cc(C)[nH]c(=O)c1CNC(=O)c1c(C)n([C@H](C)C2CCN(CC(F)(F)F)CC2)c2ccccc12 [drawing 265]
- residence time [1]: < 30 min
- EC50 ([2]; Homo sapiens, HeLa): 0.025 to 0.125 µM

SMILES: COc1cc(C)[nH]c(=O)c1CNC(=O)c1c(C)n([C@H](C)C2CCC(N3CC(OC)C3)CC2)c2ccccc12 (single isomer, unassigned) [drawing 218]
- residence time [1]: C (a t value of greater than 0.5 hours but less or equal than 5 hours)
- EC50 [2]: > 0.125 µM

SMILES: COC1CN(C2CCC([C@@H](C)n3c(C)c(C(=O)NCc4c(SC)cc(C)[nH]c4=O)c4ccccc43)CC2)C1 (single isomer, unassigned) [drawing 219]
- residence time [1]: A (value of greater than 35 hours)
- EC50 ([2]; Homo sapiens, HeLa): < 0.005 µM

SMILES: Cc1cc(C)c(CNC(=O)c2c(C)n([C@H](C)C3CCC(NC4COC4)CC3)c3ccccc23)c(=O)[nH]1 (single isomer, unassigned) [drawing 210]
- residence time [1]: C (a t value of greater than 0.5 hours but less or equal than 5 hours)
- EC50 [2]: 0.025 to 0.125 µM

SMILES: CSc1cc(C)[nH]c(=O)c1CNC(=O)c1c(C)n([C@H](C)C2CCC(N3CC(OC(F)F)C3)CC2)c2ccccc12 (single isomer, unassigned) [drawing 252]
- residence time [1]: > 2100 min
- EC50 ([2]; Homo sapiens, HeLa): < 0.005 µM

SMILES: CSc1cc(C)[nH]c(=O)c1CNC(=O)c1c(C)n([C@H](C)C2OCC(NC3(C)COC3)CO2)c2ccccc12 (single isomer, unassigned) [drawing 227]
- residence time [1]: A (value of greater than 35 hours)
- EC50 [2]: < 0.005 µM

SMILES: CSc1cc(C)[nH]c(=O)c1CNC(=O)c1c(C)n([C@H](C)C2CCC(NC3(C(F)(F)F)COC3)CC2)c2ccccc12 (stereo partly drawn)
- residence time [1]: 300 to 2100 min
- EC50 ([2]; Homo sapiens, HeLa): < 0.005 µM

SMILES: CSc1cc(C)[nH]c(=O)c1CNC(=O)c1c(C)n([C@H](C)C2OCC(N(C)C)CO2)c2ccccc12 (single isomer, unassigned) [drawing 232]
- residence time [1]: B (a t value of greater than 5 hours but less or equal than 35 hours)
- EC50 [2]: < 0.005 µM

SMILES: COC1CCC([C@@H](C)n2c(C)c(C(=O)NCc3c(SC)cc(C)[nH]c3=O)c3ccccc32)CC1 (single isomer, unassigned) [drawing 248]
- residence time [1]: > 2100 min
- EC50 [2]: < 0.005 µM

SMILES: Cc1cc(C)c(CNC(=O)c2c(C)n([C@H](C)C34CC(N(C)CC(F)(F)F)(C3)C4)c3ccccc23)c(=O)[nH]1
- residence time ([1]; read-out: Residence Time): < 30 min
- EC50 ([2]; Homo sapiens, HeLa): > 0.125 µM

SMILES: Cc1cc(Cl)c(CNC(=O)c2c(C)n([C@H](C)C3OCC(NC(C)(C)C)CO3)c3ccccc23)c(=O)[nH]1 (single isomer, unassigned) [drawing 221]
- residence time ([1]; read-out: Residence Time): 30 to 300 min
- EC50 ([2]; Homo sapiens, HeLa): 0.005 to 0.025 µM

SMILES: COc1cc(C)[nH]c(=O)c1CNC(=O)c1c(C)n([C@H](C)C23CC(N(C)CC(F)(F)F)(C2)C3)c2ccccc12
- residence time ([1]; read-out: Residence Time): 30 to 300 min
- EC50 ([2]; Homo sapiens, HeLa): 0.025 to 0.125 µM

SMILES: CCOC1CN(C2CCC([C@@H](C)n3c(C)c(C(=O)NCc4c(SC)cc(C)[nH]c4=O)c4cccnc43)CC2)C1 (single isomer, unassigned) [drawing 261]
- residence time ([1]; read-out: Residence Time): 300 to 2100 min
- EC50 [2]: < 0.005 µM

SMILES: CSc1cc(C)[nH]c(=O)c1CNC(=O)c1c(C)n([C@H](C)C2CCC(NC3(C)COC3)CC2)c2ccccc12 (single isomer, unassigned) [drawing 206]
- residence time [1]: B (a t value of greater than 5 hours but less or equal than 35 hours)
- EC50 [2]: 0.005 to 0.025 µM

— patent US11459315B2, “Modulators of methyl modifying enzymes, compositions and uses thereof” (Constellation Pharmaceuticals, Inc., priority 2017, dated 2022)
